Results on eight molecules are retold here after US20250108139A1, “PEPTIDE UREA DERIVATIVE, PHARMACEUTICAL COMPOSITION CONTAINING PEPTIDE UREA DERIVATIVE, AND APPLICATION OF PEPTIDE UREA DERIVATIVE” (BIVISION PHARMACEUTICALS, INC, priority 2022, published 2025).

One may read the Kd as the equilibrium constant for the complex coming apart. The low end stands for a tighter complex, the high end for a looser complex.

The target of one data set is PSMA protein (Homo sapiens (Human), UniProt Q04609). Kind of data set: Affinity of DB compounds to PSMA protein using Biacore (Effect Example 3). As to conditions: Biacore 8K, 15° C., 1:1 binding model; pKD=−Log KD. Here is the method:
The affinity of DB compounds to PSMA protein was tested using the Biacore 8K (Cytiva) instrument to detect ligand binding to PSMA protein (Sino Biological). PSMA protein was captured on an SA chip. Before fixing the ligand (flow paths 1 and 2, flow rate of 10 μL/min), PSMA protein (10 μg/mL, flow rate of 5 μL/min, injection time of 600 s) was fixed on flow path 2 using a flow buffer. The sensor surface was adjusted by continuously injecting 1 M NaCl three times in 50 mM NaOH. After each ligand injection, additional cleaning was performed using isopropanol in 1 M NaCl and 50 mM NaOH (flow paths 1 and 2, flow rate of 10 μL/min, injection time of 60 s).
All compounds were dissolved in 100% DMSO and diluted to 10 mM, then further diluted to the appropriate highest concentration in the analysis buffer (PBS, PH 7.4, 1 mM TCEP ([…]), 0.05% P20, 2% DMSO). The analysis was conducted under the following conditions: 15° C. analysis temperature; analysis steps=all set to LMW kinetics; cycle type=single cycle (90 s contact time, 1800 s dissociation time, 30 μL/min flow rate, flow paths 1 and 2); detection in flow=path 2-1. Data evaluation was performed using Biacore Insight Evaluation Software, fitting the data to a 1:1 binding model.
Biacore results are shown in Table 5: pKD=−Log KD, wherein KD is the binding affinity of the compound to PSMA protein measured by Biacore. It is expressed by Kd (M)=Kd (1/s)/Ka (1/Ms). A indicates pKD>8; B indicates 7<pKD<8; C indicates 6<pKD<7; D indicates pKD<6.

Data set [1] relates to PSMA-positive 22rv1 tumor-bearing mouse. Kind of data set: 177Lu labeling and animal biodistribution experiment, gamma counter. It is filed as in vivo. As to conditions: 177Lu-labeled compound, 24 h after tail vein injection, n = 2. Here is the method:
Distribution in PSMA-positive tumor-bearing mouse tissues: Tumor-bearing animals (purchased from Shanghai Alamo Pharmaceutical Technology Co., Ltd.) were subcutaneously inoculated with 3×10^6 22rv1 cells (in 50% Matrigel, Corning) into the right shoulder region of 6-9 week old (Balb/c Nude) mouse. Once the tumors had grown to an appropriate size, ^177Lu-radiolabeled DB compounds were injected into the mouse via the tail vein (approximately 1.85 MBq-3.7 MBq/mouse, specific activity: 22423.82 Kbq/μg). After administration, the animals were euthanized using carbon dioxide inhalation at 24 hours. The blood and organs (blood, liver, kidney, muscle, tumor) were collected.
Blood was collected through the abdominal aorta and 100 μL was immediately quantified into designated centrifuge tubes (weighed). After collection, the organs were washed twice with deionized water, dried, placed in pre-weighed tubes, and weighed again to calculate the sample weight. Samples were measured on the day of collection. All blood and tissue samples were measured for radioactivity using a gamma counter. The results are shown in FIGS. 3, 4, 5, 6, 7, and Table 6.

The subject of data set [2] is human prostate cancer cell line 22RV1 tumor model. In words: Micro-SPECT/CT scanning imaging study in mouse transplanted with 22RV1. It is filed as in vivo. The conditions noted are these: for Uptake in Bladder / Uptake in Kidney / Uptake in Liver / Uptake in Muscle / Uptake in Tumor (22Rv1): i.v., Micro-SPECT/CT. The method, then:
Human prostate cancer cell line 22RV1 cells were subcutaneously injected into the axilla of nude mouse to establish a prostate cancer tumor model. Approximately 3.7 MBq (100 μCi/200 μL) of the ^177Lu-labeled compound [^177Lu] DB-01 was administered via intravenous injection. SPECT/CT images were acquired using the U-SPECT+/CT (MI Labs) at 3rd hour, 5th hour, 24th hour, 72nd hour, 120th hour and 168th hour post-injection, and the resulting SPECT/CT images were quantitatively analyzed.
Table 4 presents the uptake in various organs of mouse at the 3rd hour, 5th hour, 24th hour, 72nd hour, 120th hour, and 168th hour post-injection of [^177Lu] DB-01. The results are expressed as the quantitative percentage of the injected dose (% ID)/g, based on Micro-SPECT/CT quantitative analysis.

The structures appear in SMILES notation. Some results are limits rather than exact numbers.

PSMA protein, sequence (Q04609 whole entry): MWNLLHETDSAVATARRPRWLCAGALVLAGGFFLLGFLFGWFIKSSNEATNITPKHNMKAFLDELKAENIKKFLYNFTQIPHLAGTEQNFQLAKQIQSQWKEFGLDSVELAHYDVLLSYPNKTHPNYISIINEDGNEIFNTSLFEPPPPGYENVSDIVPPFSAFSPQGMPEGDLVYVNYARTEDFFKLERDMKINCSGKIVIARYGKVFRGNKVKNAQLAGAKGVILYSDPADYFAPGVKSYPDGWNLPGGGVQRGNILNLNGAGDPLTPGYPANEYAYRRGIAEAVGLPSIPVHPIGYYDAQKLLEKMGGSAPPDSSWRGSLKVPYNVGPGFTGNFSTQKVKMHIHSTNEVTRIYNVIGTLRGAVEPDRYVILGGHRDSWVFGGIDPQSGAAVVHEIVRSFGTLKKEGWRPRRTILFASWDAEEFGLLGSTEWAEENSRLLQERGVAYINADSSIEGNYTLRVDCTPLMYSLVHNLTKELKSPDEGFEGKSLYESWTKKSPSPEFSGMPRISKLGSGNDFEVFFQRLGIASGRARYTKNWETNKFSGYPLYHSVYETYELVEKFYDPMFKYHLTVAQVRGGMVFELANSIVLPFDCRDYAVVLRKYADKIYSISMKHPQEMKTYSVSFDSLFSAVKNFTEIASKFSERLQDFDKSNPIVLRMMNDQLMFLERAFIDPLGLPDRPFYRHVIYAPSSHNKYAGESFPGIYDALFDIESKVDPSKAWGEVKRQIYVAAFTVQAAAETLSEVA

Turning to `O=C(O)CC[C@H](NC(=O)NC(CCCCNC(=O)[C@H](Cc1ccc2ccccc2c1)NC(=O)[C@H]1CC[C@H](NC(=O)c2cc(NC(=O)CNC(=O)CN3CCN(CC(=O)O)CCN(CC(=O)O)CCN(CC(=O)O)CC3)cc(C(=O)N[C@H]3CC[C@H](C(=O)N[C@@H](Cc4ccc5ccccc5c4)C(=O)NCCCC[C@H](NC(=O)N[C@@H](CCC(=O)O)C(=O)O)C(=O)O)CC3)c2)CC1)C(=O)O)C(=O)O` (stereo partly shown) [DB-17], the Kd at PSMA protein is under 10 nM.
In data set [1], `O=C(O)CC[C@H](NC(=O)NC(CCCCNC(=O)[C@H](Cc1ccc2ccccc2c1)NC(=O)c1ccc(C2CCN(C(=O)CCC(=O)NCCCC[C@H](NC(=O)CCC(=O)N3CCC(c4ccc(C(=O)N[C@@H](Cc5ccc6ccccc6c5)C(=O)NCCCC[C@H](NC(=O)N[C@@H](CCC(=O)O)C(=O)O)C(=O)O)cc4)CC3)C(=O)NCCNC(=O)CN3CCN(CC(=O)O)CCN(CC(=O)O)CCN(CC(=O)O)CC3)CC2)cc1)C(=O)O)C(=O)O` (stereo partly shown) [DB-20] showed a Blood uptake of 0.160 % ID/g, a Kidney uptake of 74.455 % ID/g, a Liver uptake of 1.020 % ID/g and a Muscle uptake of 0.175 % ID/g. The Tumor uptake in data set [1] was 41.73 % ID/g. Moreover, the Kd at PSMA protein is under 10 nM.
With `O=C(O)CC[C@H](NC(=O)N[C@@H](CCCCNC(=O)[C@H](Cc1ccc2ccccc2c1)NC(=O)c1ccc(C2CCN(C(=O)CCC(=O)NCC(=O)N3CN(C(=O)CNC(=O)CCC(=O)N4CCC(c5ccc(C(=O)N[C@@H](Cc6ccc7ccccc7c6)C(=O)NCCCC[C@H](NC(=O)N[C@@H](CCC(=O)O)C(=O)O)C(=O)O)cc5)CC4)CN(C(=O)CNC(=O)CN4CCN(CC(=O)O)CCN(CC(=O)O)CCN(CC(=O)O)CC4)C3)CC2)cc1)C(=O)O)C(=O)O` [DB-12], in data set [1], the Blood uptake amounted to 0.145 % ID/g, the Kidney uptake is listed as 88.175 % ID/g, the Liver uptake was 1.415 % ID/g and the Muscle uptake came out at 0.135 % ID/g. The Kd on PSMA protein was under 10 nM.
In the case of `O=C(O)CC[C@H](NC(=O)N[C@@H](CCCCNC(=O)[C@H](Cc1ccc2ccccc2c1)NC(=O)C1CCC(CNC(=O)c2cc(NC(=O)C[N+]34CC[N+]56CC[N+]78CC[N+]9(CC3)CC(=O)[O][Lu-4]4597([O]C(=O)C6)[O]C(=O)C8)cc(C(=O)NC[C@H]3CC[C@H](C(=O)N[C@@H](Cc4ccc5ccccc5c4)C(=O)NCCCC[C@H](NC(=O)N[C@@H](CCC(=O)O)C(=O)O)C(=O)O)CC3)c2)CC1)C(=O)O)C(=O)O` (stereo partly shown) [[^177Lu] DB-01], the “Uptake in Bladder” value in data set [2] (3 hr post-injection) was 65.50 ± 36.65 % ID/g; in data set [2] (5 hr post-injection) it was 140.36 ± 10.51 % ID/g; in data set [2] (24 hr post-injection), 0.61 ± 0.00 % ID/g; in data set [2] (72 hr post-injection), 1.03 ± 0.62 % ID/g; in data set [2] (120 hr post-injection), 0.92 ± 0.06 % ID/g; in data set [2] (168 hr post-injection), 1.01 ± 0.38 % ID/g. Besides, the “Uptake in Kidney” value in data set [2] (3 hr post-injection) was determined as 43.00 ± 7.38 % ID/g; in data set [2] (5 hr post-injection), 19.29 ± 2.77 % ID/g; in data set [2] (24 hr post-injection), 1.32 ± 0.63 % ID/g; in data set [2] (72 hr post-injection), 1.38 ± 0.29 % ID/g; in data set [2] (120 hr post-injection), 0.77 ± 0.62 % ID/g; in data set [2] (168 hr post-injection) it was 1.53 ± 0.46 % ID/g. The “Uptake in Liver” value in data set [2] (3 hr post-injection) was determined as 2.75 ± 0.90 % ID/g; in data set [2] (5 hr post-injection) it was 1.56 ± 0.15 % ID/g; in data set [2] (24 hr post-injection) it was 0.91 ± 0.45 % ID/g; in data set [2] (72 hr post-injection) it was 0.90 ± 0.42 % ID/g; in data set [2] (120 hr post-injection), 0.99 ± 0.22 % ID/g; in data set [2] (168 hr post-injection), 1.04 ± 0.26 % ID/g. In addition, the “Uptake in Muscle” value in data set [2] (3 hr post-injection) worked out at 1.97 ± 0.71 % ID/g; in data set [2] (5 hr post-injection) it was 1.10 ± 0.56 % ID/g; in data set [2] (24 hr post-injection) it was 0.51 ± 0.17 % ID/g; in data set [2] (72 hr post-injection) it was 0.81 ± 0.23 % ID/g; in data set [2] (120 hr post-injection), 0.43 ± 0.17 % ID/g; in data set [2] (168 hr post-injection) it was 0.65 ± 0.34 % ID/g. Moreover, the “Uptake in Tumor (22Rv1)” value in data set [2] (3 hr post-injection) was determined as 21.25 ± 4.38 % ID/g; in data set [2] (5 hr post-injection) it was 21.28 ± 0.42 % ID/g; in data set [2] (24 hr post-injection), 15.51 ± 2.65 % ID/g; in data set [2] (72 hr post-injection), 12.41 ± 0.95 % ID/g; in data set [2] (120 hr post-injection) it was 8.90 ± 0.48 % ID/g; in data set [2] (168 hr post-injection), 7.85±1.16 % ID/g. In addition, the uptake in tumor in data set [2] (at 180 minutes, according to calculations) is given as 13.55±3.85 % ID/g. Further, in data set [2] (early stages post-injection), the excretion result was “rapidly excreted through the kidneys and bladder”. In addition, the “time at which concentration of the radiopharmaceutical in the tumor reaches its peak” value in data set [2] (post-administration) turned out to be 5 h.
For `O=C(O)CC[C@H](NC(=O)NC(CCCCNC(=O)[C@H](Cc1ccc2ccccc2c1)NC(=O)c1ccc(C2CCN(C(=O)CNC(=O)c3cc(NC(=O)COCCOCCNC(=O)CN4CCN(CC(=O)O)CCN(CC(=O)O)CCN(CC(=O)O)CC4)cc(C(=O)NCC(=O)N4CCC(c5ccc(C(=O)N[C@@H](Cc6ccc7ccccc7c6)C(=O)NCCCC[C@H](NC(=O)N[C@@H](CCC(=O)O)C(=O)O)C(=O)O)cc5)CC4)c3)CC2)cc1)C(=O)O)C(=O)O` (stereo partly shown) [DB-21], in data set [1], the Blood uptake was 1.54 % ID/g, the Kidney uptake is on record as 150.54 % ID/g, the Liver uptake stood at 3.645 % ID/g and the Muscle uptake was 0.465 % ID/g. In data set [1], this molecule registered a Tumor uptake of 77.54 % ID/g. For the same molecule, the Kd at PSMA protein is under 10 nM.
For the molecule `O=C(O)CC[C@H](NC(=O)NC(CCCCNC(=O)[C@H](Cc1ccc2ccccc2c1)NC(=O)[C@H]1CC[C@H](NC(=O)CCC(=O)NCCCC[C@H](NC(=O)CCC(=O)N[C@H]2CC[C@H](C(=O)N[C@@H](Cc3ccc4ccccc4c3)C(=O)NCCCC[C@H](NC(=O)N[C@@H](CCC(=O)O)C(=O)O)C(=O)O)CC2)C(=O)NCCNC(=O)CN2CCN(CC(=O)O)CCN(CC(=O)O)CCN(CC(=O)O)CC2)CC1)C(=O)O)C(=O)O` (stereo partly shown) [DB-16], in data set [1], the Blood uptake is on record as 0.03 % ID/g, the Kidney uptake was 5.135 % ID/g, the Liver uptake is 0.185 % ID/g and the Muscle uptake is recorded as 0.045 % ID/g. The molecule further returned a Tumor uptake in data set [1] of 12.015 % ID/g. On PSMA protein, this molecule showed a Kd of under 10 nM.
In turn, `O=C(O)CC[C@H](NC(=O)N[C@@H](CCCCNC(=O)[C@H](Cc1ccc2ccccc2c1)NC(=O)[C@H]1CC[C@H](CNC(=O)CNC(=O)c2cc(NC(=O)CN3CCN(CC(=O)O)CCN(CC(=O)O)CCN(CC(=O)O)CC3)cc(C(=O)NCC(=O)NC[C@H]3CC[C@H](C(=O)N[C@@H](Cc4ccc5ccccc5c4)C(=O)NCCCC[C@H](NC(=O)N[C@@H](CCC(=O)O)C(=O)O)C(=O)O)CC3)c2)CC1)C(=O)O)C(=O)O` [DB-02] gave a Kd at PSMA protein of under 10 nM.
As to `O=C(O)CC[C@H](NC(=O)NC(CCCCNC(=O)[C@H](Cc1ccc2ccccc2c1)NC(=O)[C@H]1CC[C@H](NC(=O)COCCOCCNC(=O)c2cc(NC(=O)CCCCCCCNC(=O)CN3CCN(CC(=O)O)CCN(CC(=O)O)CCN(CC(=O)O)CC3)cc(C(=O)NCCOCCOCC(=O)N[C@H]3CC[C@H](C(=O)N[C@@H](Cc4ccc5ccccc5c4)C(=O)NCCCC[C@H](NC(=O)N[C@@H](CCC(=O)O)C(=O)O)C(=O)O)CC3)c2)CC1)C(=O)O)C(=O)O` (stereo partly shown) [DB-15], in data set [1], the Blood uptake is 0.035 % ID/g, the Kidney uptake turned out to be 8.76 % ID/g, the Liver uptake amounted to 0.095 % ID/g and the Muscle uptake is given as 0.04 % ID/g. Also, the Tumor uptake in data set [1] was determined as 19.46 % ID/g. Also, the Kd at PSMA protein is under 10 nM.
